# Where two headings read alike, the source gives them in different places.
# Tests used:
# [1] = test system: panel of over 20 human cancer cell lines; experiment: In vitro studies on a panel of human cancer cell lines; type: cell-based; conditions: compared with Topotecan or SN-38
# human plasma proteins = experiment: Percent of free camptothecin analogs in human plasma (dialysis, HPLC); type: in vitro ADME; conditions: 100 nM Compound Concentrations
# Experimental: Stocks of various camptothecin analogs were prepared in DMSO. […] Optimum HPLC detection conditions for each camptothecin analog were developed using traditional HPLC methods. Table VIII. Percent of Free Camptothecin Analogs in Human Plasma (100 nM Compound Concentrations)
# [2] = test system: advanced malignant melanoma; conditions: fifteen patients, 90-360 mg/m^2 repeated every 2 weeks; cited from earlier work
# [3] = cited from earlier work; for Non-Hematologic Toxicity No. of Patients With: Cystitis / Non-Hematologic Toxicity No. of Patients With: Diarrhea: 5-day Course; for Number of Patients with Non-Hematologic Toxicity: Cystitis / Number of Patients with Non-Hematologic Toxicity: Diarrhea: Single-Dose Method
# [4] = eight patients with measurable disease, 5-day courses at dose levels associated with toxicity; cited from earlier work
# [5] = test system: advanced gastrointestinal cancer; conditions: cited from earlier work
# [6] = 15 mg/m^2 X 5, 9 patients treated
# [7] = 17 mg/m^2 X 5, 5 patients treated
# [8] = 20 mg/m^2 X 5, 10 patients treated
# [9] = 5-Day Course (27 Patients Total), 4 wks
# [10] = 5-Day Course (27 Patients Total), 8 wks
# [11] = 5-Day Course (27 Patients Total), 12 wks
# [12] = Single-Dose Method (34 Patients Total), 3 wks
# [13] = Single-Dose Method (34 Patients Total), 6 wks
# [14] = Single-Dose Method (34 Patients Total), 9 wks
# [15] = Single-Dose Method (34 Patients Total), 12 wks
structure (smiles),measurement,setting,value
"CC[C@@]1(O)C(=O)OCc2c1cc1n(c2=O)Cc2c-1nc1ccccc1c2CC[Si](C)(C)C [Karenitecin (BNP1350), (4S)-4-ethyl-4-hydroxy-11-[2-(trimethylsilyl)ethyl]-1H-pyrano[3':4':6,7]indolizino[1,2-b]quinoline-3,14(4H,12H)-dione]",antitumor potency,[1],significantly more potent
same,Percent of Free CPTs,human plasma proteins,1%
CC[C@@]1(O)C(=O)OCc2c1cc1n(c2=O)Cc2cc3ccccc3nc2-1 [CPT sodium],myelosuppression,[2],11 patients
same,patients with a 50% or greater decrease in tumor diameter,[2],None
same,Cystitis,[3]; 5-Day Course (P<0.05),48 (P<0.05) % of 27 Patients
same,Non-Hematologic Toxicity No. of Patients With: Cystitis,"[3]; 11 mg/m^2 X 5, 2 patients treated",1
same,Non-Hematologic Toxicity No. of Patients With: Cystitis,[3]; [6],4
same,Non-Hematologic Toxicity No. of Patients With: Diarrhea,[3]; [6],1
same,Non-Hematologic Toxicity No. of Patients With: Cystitis,[3]; [7],2
same,Non-Hematologic Toxicity No. of Patients With: Diarrhea,[3]; [7],4
same,Non-Hematologic Toxicity No. of Patients With: Cystitis,[3]; [8],6
same,Non-Hematologic Toxicity No. of Patients With: Diarrhea,[3]; [8],4
same,Non-Hematologic Toxicity No. of Patients With: Diarrhea,"[3]; 22 mg/m^2 X 5, 1 patient treated",1
same,Cystitis,[3]; Single Dose,24 % of 34 Patients
same,Number of Patients with Non-Hematologic Toxicity: Cystitis,"[3]; 100 mg/m^2, 6 patients treated",2
same,Number of Patients with Non-Hematologic Toxicity: Cystitis,"[3]; 110 mg/m^2, 2 patients treated",1
same,Number of Patients with Non-Hematologic Toxicity: Diarrhea,"[3]; 110 mg/m^2, 2 patients treated",1
same,Number of Patients with Non-Hematologic Toxicity: Cystitis,"[3]; 120 mg/m^2, 7 patients treated",2
same,Number of Patients with Non-Hematologic Toxicity: Diarrhea,"[3]; 120 mg/m^2, 7 patients treated",4
same,Number of Patients with Non-Hematologic Toxicity: Cystitis,"[3]; 180 mg/m^2, 9 patients treated",3
same,Number of Patients with Non-Hematologic Toxicity: Diarrhea,"[3]; 180 mg/m^2, 9 patients treated",2
same,clinical benefit,[4],No clinical benefit
same,Objective Results: Improved,[5]; [9],1
same,Objective Results: Stable,[5]; [9],12
same,Objective Results: Worse,[5]; [9],14
same,Objective Results: Stable,[5]; [10],7
same,Objective Results: Worse,[5]; [10],20
same,Objective Results: Stable,[5]; [11],6
same,Objective Results: Worse,[5]; [11],21
same,Objective Results: Improved,"[5]; Single-Dose Method (34 Patients Total), 3 wks after start of therapy",4
same,Objective Results: Stable,[5]; [12],17
same,Objective Results: Worse,[5]; [12],13
same,Objective Results: Improved,[5]; [13],2
same,Objective Results: Stable,[5]; [13],11
same,Objective Results: Worse,[5]; [13],21
same,Objective Results: Improved,[5]; [14],2
same,Objective Results: Stable,[5]; [14],8
same,Objective Results: Worse,[5]; [14],24
same,Objective Results: Stable,[5]; [15],6
same,Objective Results: Worse,[5]; [15],28
same,patients with partial objective improvement,"[5]; after 2 months (8 or 9 weeks), of 61 patients",two
same,patients showing improvement,"[5]; at 3 months, of 61 patients",none
same,patients showing a 25%-50% response,"[5]; at 3 wks, only","*A total of 3 patients showed a 25%-50% response at 3 wks, only."

# Source: patent EP2197279B1, “C10-SUBSTITUTED CAMPTOTHECIN ANALOGS” (BIONUMERIK PHARMACEUTICALS, INC., priority 2007, dated 2009)
